The source of these data is patent publication US10227290B2, “Glycosphingolipids for use in modulating immune responses” (The Regents of the University of California, priority 2012, dated 2019).

Molecules are shown by their SMILES.

Experiment [1] has as its system Peripheral blood mononuclear cells (PBMCs), CD3+Vα24+ NKT cells. The experiment is described as follows: In vitro expansion of CD3+Vα24+ NKT cells from human PBMCs. Type of experiment: cell-based. The conditions noted are these: 13 days; 0.1 μg/ml KRN7000, 1 μg/ml α-GalCerBf, 1 μg/ml ceramideBf. The protocol:
FIGS. 6A and 6B illustrate that α-GalCerBf binds human CD1d and activates human NKT cells in vitro. FIG. 6A: PBMCs were cultured for 13 days with 0.1 μg/mlKRN7000, 1 μg/ml α-GalCerBf, or 1 μg/ml ceramideBf. Dot plots show CD3^+Vα24^+NKT cells pre- and post-expansion. The data shown are representative of at least two individual experiments performed with six individual donors. FIG. 6B: Human NKT cells were purified after two rounds of expansion with 1 μg/ml α-GalCerBf and restimulated with 10 μg/ml α-GalCerBf in the presence or absence of control Ig or anti-Cd1d blocking antibodies. IFN-γ secretion was measured in supernatants 40-48 hours later. Data are representative of two independent experiments.
The capability of α-GalCerBf to stimulate freshly isolated NKT cells was determined. A first experiment was performed to determine whether Vα24^+ cells could be expanded in vitro with α-GalCerBf as previously described for KRN7000 (see, e.g., Rogers et al., J. Immunol. Meth. 285:197-214 (2004)). Peripheral blood mononuclear cells (PBMCs) were cultured with 0.1 μg/ml KRN7000, 1 μg/ml α-GalCerBf, or 1 μg/ml ceramideBf for 13 days. The presence of CD3 Vα24^+ cells was then assessed by flow cytometry. At least two individual experiments performed with six individual donors. […] IFN-γ secretion was measured in supernatants 40-48 hours later.

A further experiment relates to liver NKT cells. The experiment is described as follows: In vivo activation of NKT cells by transfer of sphingolipid-pulsed BMDCs. Further details: species or system C57BL/6 mice. The note with it: without re-stimulation; BMDCs pulsed with α-GalCerBf. The protocol:
FIGS. 7A-7F illustrate that α-GalCerBf activates NKT cells in vivo. Bone marrow-derived dendritic cells (BMDCs) were pulsed in vitro with LPS only or LPS+α-GalCerBf for 24 hr. Then 0.4×10^6 cells were treated with control Ig or anti-CD1d blocking antibody and then transferred to WT mice. Liver mononuclear cells were analyzed 16-18 hr later. Data shown were pooled from three independent experiments. FIGS. 7A-7C: Expression of CD25 and CD69 on gated CD3^+tetramer^+ cells. Representative flow cytometry plots and pooled data showing fold change of CD25 and CD69 surface expression compared to NKT cells isolated from mice transferred with LPS-pulsed BMDCs. FIGS. 7D and 7E provide representative flow cytometry plots and pooled data, respectively, of intracellular IFN-γ expression on gated CD3^+ tetramer^+ cells. FIG. 7F presents serum IFN-γ levels. […]
Mice were sacrificed 16-18 hr after transfer of 0.4×10^6 mature CD86^hiMHCII^hi BMDCs. […] All isolations were performed in the presence of brefeldin A. After cell surface staining, cells were fixed in Cytofix/Cytoperm (BD Biosciences) according to the manufacturer's instructions and stained for intracellular cytokines Serum IFN-γ was measured by ELISA. […]
As described herein, because α-GalCerBf is an agonist of NKT cell hybridomas and freshly isolated NKT cells in culture, the capability of α-GalCerBf to activate NKT cells in vivo was determined. […]

Experiment [2] relates to cyclophosphamide (CY) induced diabetes. The experiment is described as follows: Cyclophosphamide-induced diabetes mouse model. Type of experiment: in vivo, NOD mice. The note with it: 25 μg intraperitoneally on days 0, 2, 4, 6, 8; diabetic = blood glucose above 250 mg/dL; 100% of DMSO controls diabetic. The protocol: FIG. 8 presents a graph illustrating the percent of animals that developed diabetes in a cyclophosphamide-induced diabetes mouse model. Groups of animals received DMSO only, α-GalCerBf, or KRN7000. Number of animals is represented by n. Mice were considered diabetic when blood glucose was above 250 mg/dL. Blood glucose levels were measured at the time point shown. Data are representative of three independent experiments. KRN7000 prevents cyclophosphamide (CY) induced diabetes in a Non-Obese Diabetic (NOD) mouse model (see, e.g., Sharif et al., Nat. Med. 7:1057-62 (2001)). Prevention of diabetes in this model is believed to be associated with suppression of T and B cell responses to islet antigens as well as a polarization towards TH2-like responses (see Sharif, supra). This example describes the effect of α-GalCerBf in the CY induced diabetes mouse model. Groups of twelve-week old NOD female mice were given 300 mg/kg cyclophosphamide intraperitoneally on day 0. Groups of mice received DMSO (n=4), or 25 μg α-GalCerBf (n=7) or 5 μg KRN7000 (n=3) diluted in DMSO intraperitoneally on days 0, 2, 4, 6, and 8. Diabetes progression was monitored by measuring blood glucose at each time point (see FIG. 8). […] Kaplan-Meier survival curves were determined by a log-rank test using Prism software.

On to `CC(C)CCCCCCCCCCC[C@@H](O)CC(=O)N[C@@H](CO)[C@H](O)CCCCCCCCCCCC(C)C` [ceramideBf], for which, in experiment [1], the “Expansion of a population of CD3+Vα24+ cells” value was “did not show an expansion”.

In the case of `CC(C)CCCCCCCCCCC[C@@H](O)CC(=O)N[C@@H](CO[C@H]1OC(CO)[C@H](O)[C@H](O)C1O)[C@H](O)CCCCCCCCCCCC(C)C` (stereo partly drawn) [α-GalCerBf], in the experiment on liver NKT cells, the “Liver NKT cells expressing IFN-γ” value was determined as 15%. Further, the “Mice in which diabetes development was prevented” value in experiment [2] is “more than 40%”.
